Experimental data published in article PMC3320733 (International Journal of Antimicrobial Agents, 2012).
Where no end group is shown, it is not given here.

Legend:
Format in all cases: cell-based
human red blood cells = assay: Haemolytic effects on human red blood cells; conditions: 1 h
[1] = test system: Pseudomonas aeruginosa PAO1
Bacillus subtilis 168 = test system: Bacillus subtilis 168

Substance	HL50 (concentration at which 50% of red blood cells were lysed) (human red blood cells) [µM]	MIC Pseudomonas aeruginosa [1] [µM]	MIC Bacillus subtilis (Bacillus subtilis 168) [µM]
GLLGLLGSVVSHVVPAIVGHF-NH2 [Maculatin 1.3] [listing 1 of 2 here]	25	–	–
GLLGLLGSVVSHVVPAIVGHF-NH2 [Maculatin 1.3] [listing 2 of 2 here]	–	>100	25
FFHHIFRGIVHVGKTIHRLVTG [Piscidin 1] [listing 1 of 2 here]	–	50	12.5
FFHHIFRGIVHVGKTIHRLVTG [Piscidin 1] [listing 2 of 2 here]	20	–	–
GFKDLLKGAAKALVKTVLF-NH2 [Ascaphin-8]	45	12.5	6.25
FFGKVLKLIRKIF-NH2 [DASamP1]	25	>100	>100
